Assay results as given in patent US20220395549A1, “COMPOSITIONS OF THE OLEA EUROPAEA V. SYLVESTRIS WITH ANTIMICROBIAL EFFICACY” (TAPROGGE GMBH, priority 2019, published 2022).

Test system: S. aureus ATCC 6538
Test: quantitative suspension assay of mono-substances
Assay type: cell-based, Staphylococcus aureus
Settings: for Number of CFUs: initial cell load 9.9 × 10^4 CFU/ml
Procedure: A stock solution was prepared by adding 0.1 ml methanol to 10.48 mg of hydroxytyrosol. After dissolving of the compound, the solution was quantitatively transferred into 4.9 ml water for injection (WFI), effective concentration of hydroxytyrosol: 2.0 mg/ml.
Using the stock solution, five (5) concentrations of hydroxytyrosol in a geometric series of 2 mg hydroxytyrosol/ml to 0.125 mg hydroxytyrosol/ml were tested in a quantitative suspension assay.
2 ml of the stock solution and the dilutions (V1 to V4), respectively, and a methanol-solution of 2% as a positive control were inoculated with 0.1 ml of a test suspension of S. aureus ATCC 6538, adjusted to about 2.0×10^5 CFU/0.1 ml, resulting in about 100,000 CFU/ml in the individual assays.
Samples (0.1 ml) were then taken at t 0, 12, 30, and 60 minutes as well as t 24 48, and 72 hours after inoculation and culturing at between 20-25° C., and were diluted with 0.9 ml of 0.9% NaCl solution. The samples were plated on blood agar plates, and incubated up to 5 days at between 30-35° C.
A stock solution was prepared at a concentration of 2 mg/ml of oleocanthal. The compound was dissolved by in ethanol (99.8%) and WFI was added.
Using the stock solution, concentrations of oleocanthal in a geometric series of 1 mg oleocanthal/ml to 0.125 mg oleocanthal/ml were tested in a quantitative suspension assay.
2 ml of the stock solution and the dilutions (V1 to V4), respectively, and a ethanol-solution of 2.85% as a positive control were inoculated with 0.055 ml of a test suspension of S. aureus ATCC 6538, adjusted to about 3.6×10^5 CFU/0.1 ml, resulting in about 99,000 CFU/ml in the individual assays.
A stock solution was prepared at a concentration of 1 mg/ml of oleacin. The compound was dissolved by in ethanol (99.8%) and WFI was added.
Using the stock solution, concentrations of oleacin at 0.25 mg oleacin/ml and 0.125 mg oleacin/ml were tested in a quantitative suspension assay.
2 ml of the stock solution and the dilutions (V1 and V2), respectively, and a ethanol-solution of 0.44% as a positive control were inoculated with 0.055 ml of a test suspension of S. aureus ATCC 6538, adjusted to about 3.5×10^5 CFU/0.1 ml, resulting in about 99,000 CFU/ml in the individual assays.
A stock solution was prepared by adding 0.1 ml chloroform to 25 mg of uvaol. After dissolving of the compound, the solution was quantitatively transferred into 12.4 ml water for injection (WFI), effective concentration of uvaol: 2.0 mg/ml.
Using the stock solution, five (5) concentrations of uvaol in a geometric series of 2 mg uvaol/ml to 0.125 mg uvaol/ml were tested in a quantitative suspension assay.
2 ml of the stock solution and the dilutions (V1 to V4), respectively, and a chloroform-solution of 0.8% as a positive control were inoculated with 0.1 ml of a test suspension of S. aureus ATCC 6538, adjusted to about 2.0×10^5 CFU/0.1 ml, resulting in about 100,000 CFU/ml in the individual assays.
A stock solution was prepared by adding 0.1 ml chloroform to 10.45 mg of erythrodiol. After dissolving of the compound, the solution was quantitatively transferred into 4.9 ml water for injection (WFI), effective concentration of erythrodiol: 2.0 mg/ml.
2 ml of the stock solution and the dilutions (V1 to V4), respectively, and a chloroform-solution of 2% as a positive control were inoculated with 0.1 ml of a test suspension of S. aureus ATCC 6538, adjusted to about 3.6×10^5 CFU/0.1 ml, resulting in about 100.000 CFU/ml in the individual assays.

## C/C=C(/C=O)[C@@H](CC=O)CC(=O)OCCc1ccc(O)cc1 [oleocanthal]
0.125 Ole/ml, t 0 min
  Number of CFUs: 2.0 × 10^4 CFU/ml
0.125 Ole/ml, t 12 min
  Number of CFUs: 1.6 × 10^4 CFU/ml
0.125 Ole/ml, t 30 min
  Number of CFUs: 1.6 × 10^4 CFU/ml
0.125 Ole/ml, t 60 min
  Number of CFUs: 1.1 × 10^4 CFU/ml
0.125 Ole/ml, t 24 h
  Number of CFUs: 5.4 × 10^3 CFU/ml
0.125 Ole/ml, t 48 h
  Number of CFUs: <100 CFU/ml
0.125 Ole/ml, t 72 h
  Number of CFUs: <100 CFU/ml
0.25 Ole/ml, t 0 min
  Number of CFUs: 1.7 × 10^4 CFU/ml
0.25 Ole/ml, t 12 min
  Number of CFUs: 1.8 × 10^4 CFU/ml
0.25 Ole/ml, t 30 min
  Number of CFUs: 2.0 × 10^4 CFU/ml
0.25 Ole/ml, t 60 min
  Number of CFUs: 1.6 × 10^4 CFU/ml
0.25 Ole/ml, t 24 h
  Number of CFUs: 7.2 × 10^3 CFU/ml
0.25 Ole/ml, t 48 h
  Number of CFUs: 8.3 × 10^3 CFU/ml
0.25 Ole/ml, t 72 h
  Number of CFUs: <100 CFU/ml
0.5 Ole/ml, t 0 min
  Number of CFUs: 8.3 × 10^3 CFU/ml
0.5 Ole/ml, t 12 min
  Number of CFUs: 6.1 × 10^3 CFU/ml
0.5 Ole/ml, t 30 min
  Number of CFUs: 5.1 × 10^3 CFU/ml
0.5 Ole/ml, t 60 min
  Number of CFUs: 2.4 × 10^3 CFU/ml
0.5 Ole/ml, t 24 h
  Number of CFUs: <100 CFU/ml
0.5 Ole/ml, t 48 h
  Number of CFUs: <100 CFU/ml
0.5 Ole/ml, t 72 h
  Number of CFUs: <100 CFU/ml
1.0 Ole/ml, t 0 min
  Number of CFUs: <100 CFU/ml
1.0 Ole/ml, t 12 min
  Number of CFUs: <100 CFU/ml
1.0 Ole/ml, t 30 min
  Number of CFUs: <100 CFU/ml
1.0 Ole/ml, t 60 min
  Number of CFUs: <100 CFU/ml
1.0 Ole/ml, t 24 h
  Number of CFUs: <100 CFU/ml
1.0 Ole/ml, t 48 h
  Number of CFUs: <100 CFU/ml
1.0 Ole/ml, t 72 h
  Number of CFUs: <100 CFU/ml
2.0 Ole/ml, t 0 min
  Number of CFUs: <100 CFU/ml
2.0 Ole/ml, t 12 min
  Number of CFUs: <100 CFU/ml
2.0 Ole/ml, t 30 min
  Number of CFUs: <100 CFU/ml
2.0 Ole/ml, t 60 min
  Number of CFUs: <100 CFU/ml
2.0 Ole/ml, t 24 h
  Number of CFUs: <100 CFU/ml
2.0 Ole/ml, t 48 h
  Number of CFUs: <100 CFU/ml
2.0 Ole/ml, t 72 h
  Number of CFUs: <100 CFU/ml
Detection limit of the assay 100 CFU/ml
  antimicrobial effect, summary in words: immediate effect at the higher concentrations
